The record followed here is patent US10206997B2, “Facilitator-DNA combination vaccine” (priority 2011, dated 2019).

In experiment [1] the test system is CD8 T cells co-cultured with peritoneal macrophages or spleen dendritic cells. Put plainly: Co-culture of treated APCs with purified CD8 T cells. Type of experiment: cell-based, mice. Conditions: macrophages and DCs co-culture; pcD-S2 with vs without amiloride. As to the method: With respect to co-cultures, pcD-S2 (10 μg/ml) with or without 100 μM amiloride treat APCs, peritoneal macrophage or spleen dendritic cell, were cultured for 2 days. At day 3, purified CD8 T cell (R&D systems, USA) was added into culture with APC:T ratio of 1:5, 1:2, 1:1. At day 8, cells were collected and restimulated with S208-215 (10 μg/ml). PMA+Ionomycin was added as positive control for restimulation.

Experiment [2] deals with RAW264.7, JAWSII and DC2.4 cell lines. Put plainly: Cy5-pEGFP plasmid entry and expression in antigen presenting cell lines. Type of experiment: cell-based. As to the method: (§1) With respect to cell culture and inhibiter treatment, RAW264.7 and DC2.4 were cultured in DMEM/10% FCS, and JAWSII was cultured in DMEM/10% FCS with GMCSF (1000 U/ml, Peprotech, USA). Amiloride (Sigma-Aldrich, USA) was prepared as 10 mM solution and was diluted to 1 mM, 100 uM, 10 uM in DMEM medium before treatment. After culture medium was removed, cells were treated with amiloride, MβCD (5 mM, Sigma) or Fillipin (10 ng/ml, sigma) at 37° C. for 1 h. LPS (10 ng/ml, sigma) or 10 ng/ml DNA in DMEM was added at 37° C. for 0.5 h, after wash, culture medium was added and cells were cultured.
With respect to plasmid preparation and fluorescence conjugation, pEGFP (Clontech, USA) and pcD-S2 plasmid were prepared from DH5a culture, purified by EndoFree Plasmid Maxi Kit (Qiagen, Germany) and endotoxin was below 10 EU/mg by LAL test. Cy5 was conjugated to plasmid with Minis Label IT Kit (Minis, USA) as manual instructed.

The next experiment relates to CD8+ T effectors. In words: Multi-color flow cytometry of CD8+ T effectors (IFN-γ, perforin, granzyme B). Conditions: HBsAg restimulation. Type of experiment: in vivo, mice. As to the method: (§2) 4 h later, both inguinal lymph nodes were collected.
With respect to multi-color flow cytometry, a multi-color panel was set up with anti-CD3, anti-CD8, anti-IFN-γ, anti-perforin and anti-granzyme B. After restimulation in vitro by sAg for 24 h or S208-215 for 12 h, following monensin block for 6 h, splenocyte was fixed, penetrated and stained. Data was collected with BD Aria and analyzed with Flowjo (Tree Star, Ashland, USA).

The test system of the next experiment is RAW264.7. In words: APC maturation markers and innate cytokine secretion with pcD-S2. Type of experiment: cell-based. Conditions: pcD-S2 with vs without amiloride. As to the method: as §1
Experiment [3] relates to Cy5-plasmid+ cells in lymph nodes. Put plainly: Cy5-pEGFP plasmid entry in vivo, Cy5+ cells in draining lymph nodes by FACS. Conditions: hind footpad, 4 hrs. On the set-up: species or system C57B/6 mice. As to the method:
as §2

In another experiment the test system is HBsAg. Put plainly: Antibody against HBsAg after footpad immunization. Type of experiment: in vivo, C57B/6 mice.

The structures appear in SMILES notation.

As for `N=C(N)NC(=O)c1nc(Cl)c(N)nc1N` [amiloride], the “percentage of S208-215 specific triple positive CD8 T effectors” value in experiment [1] is given as “significantly increased”. In addition, the GFP expression entry in experiment [2] (1 mM amiloride pre-treatment, after 3 days culture, vs un-treated cells) is reported as “significantly higher level of GFP”. Besides, the “GFP expression relative to liposome treated cells” value in experiment [2] (1 mM amiloride, 3 days) is listed as “comparable with that of liposome treated cells”. The “uptake of Cy5-labeled pEGFP plasmids” value in experiment [2] (pre-treated with 1 mM amiloride for 1 h, within 2 hrs, vs un-treated cells) was “significantly taken up”. Also, the “triple positive cells in HBsAg stimulated CD8 response” value in the experiment on CD8+ T effectors is on record as “triple positive cells could also be observed”. For the same molecule, the “expression of TNF and IFN-γ” value in the experiment on RAW264.7 (RAW264.7) was “higher levels of expression of TNF and IFN-γ”. The “expression of maturation markers CD40, CD80 and CD86” value in the experiment on RAW264.7 (RAW264.7 in vitro) was “higher levels of expression of CD40, CD80 and CD86”. The “percentage of Cy5-plasmid+ cells in lymph nodes (LN)” value in experiment [3] (10 μM amiloride) is “increased”; in experiment [3] (100 μM amiloride), “peaked”; in experiment [3] (1 mM amiloride) it was “decreased”. The “most effective dose of amiloride for in vivo treatment” value with HBsAg (antibody and DTH experiments) amounted to 1 mM. Moreover, the “levels of antibody against HBsAg” value in the experiment with HBsAg (footpad immunization, vs pcD-S2 alone, dose dependent) is recorded as “increased”.
